In article PMC11432330, “Novel Drug-like HsrA Inhibitors Exhibit Potent Narrow-Spectrum Antimicrobial Activities against Helicobacter pylori” (International Journal of Molecular Sciences, 2024):

Test system: H. pylori 26695
Experiment: In vivo inhibition of HsrA: RNA-Seq transcriptomic analysis of exposed cells
Assay type: cell-based, Helicobacter pylori
Details: for log2 Fold Change: exposed to lethal concentrations vs control
Procedure: Bacterial growth from three blood agar plates of H. pylori ATCC 700392 (aka 26695) incubated for 48 h at 37 °C under microaerobic conditions was aseptically resuspended in BHI + FBS and adjusted to 10^7 CFU/mL. BHI broth cultures were incubated microaerobically at 37 °C for 24 h. […] At this time, bacterial growth was stopped by adding 1.5 mL ice-cold RNA stop solution (95% absolute ethanol, 5% acid-buffered phenol) and subsequently incubated on ice. Control samples were exposed to the same amount of DMSO instead of the inhibitor. Helicobacter cells from all samples were harvested by centrifugation (4000 rpm at 4 °C for 10 min), then the pellets were quickly frozen by immersion in liquid nitrogen and stored at −80 °C.
RNA-Seq analysis was performed by GENEWIZ (Azenta Life Sciences, Leipzig, Germany). Frozen cell pellets from two biological replicates of each treatment condition were properly submitted to GENEWIZ in dry ice. RNA-Seq libraries were prepared according to standard protocols via rRNA depletion, RNA fragmentation and random priming, reverse transcription, 5’-phosphorylation and dA-tailing of cDNAs, adaptor ligation, and PCR enrichment. Once the quality of each library was confirmed, they were sequenced on an Illumina NovaSeq 6000 (Illumina, San Diego, CA, USA) with 150-bp paired-ends. Raw sequence reads were filtered to remove possible adapter sequences and nucleotides with poor quality using Trimmomatic v.0.36 [105]. The trimmed reads were subsequently mapped to the H. pylori strain 26695 reference genome NC_000915.1 available on NCBI, by using the Bowtie2 aligner v.2.2.6 [106]. Unique gene hit counts were calculated by using featureCounts from the Subread package v.1.5.2. Only unique reads that fell within the gene regions were counted. Using DESeq2 [108], a comparison of the gene expression between the control and treated groups of samples was performed. The Wald test was used to generate p-values and log2 fold changes. Genes with an adjusted p-value < 0.05 and absolute log2 fold change >1 were considered as differentially expressed genes (DEGs) for each comparison. The RNA-Seq data generated in this study have been deposited in ArrayExpress with the accession number E-MTAB-14255.

For `NC(=NOC(=O)Nc1ccc(Cl)cc1)c1csc([N+](=O)[O-])c1` [Ligand V, N′-{[(4-chloroanilino)carbonyl]}oxy-5-nitrothiophene-3-carboximidamide], the “log2 Fold Change” value (gene HP0450) was -0.486, the “log2 Fold Change” value (gene HP0462) was -0.540 and the “log2 Fold Change HP0464” value (gene HP0464, lethal concentrations of V vs control) was 0.429. The “log2 Fold Change” value (gene HP0465) was -0.541, the “log2 Fold Change” value (gene HP0469) was 1.295 and the “log2 Fold Change” value (gene HP0472) was 1.301. The “log2 Fold Change HP0474” value (gene HP0474, lethal concentrations of V vs control) was 0.428, the “log2 Fold Change HP0485” value (gene HP0485, lethal concentrations of V vs control) was 0.392 and the “log2 Fold Change HP0513” value (gene HP0513, lethal concentrations of V vs control) was 0.406. The “log2 Fold Change HP0515” value (gene HP0515, lethal concentrations of V vs control) was 0.192, the “log2 Fold Change” value (gene HP0518) was -0.587 and the “log2 Fold Change HP0536” value (gene HP0536, lethal concentrations of V vs control) was 0.397. For the same molecule, the “log2 Fold Change” value (gene HP0537) was -0.567, the “log2 Fold Change HP0540” value (gene HP0540, lethal concentrations of V vs control) was 0.190 and the “log2 Fold Change HP0546” value (gene HP0546, lethal concentrations of V vs control) was 0.161. The “log2 Fold Change” value (gene HP0555) was -0.497, the “log2 Fold Change HP0563” value (gene HP0563, lethal concentrations of V vs control) was 0.320 and the “log2 Fold Change” value (gene HP0568) was -0.470. For the same molecule, the “log2 Fold Change HP0586” value (gene HP0586, lethal concentrations of V vs control) was 0.156, the “log2 Fold Change HP0587” value (gene HP0587, lethal concentrations of V vs control) was 0.303 and the “log2 Fold Change HP0602” value (gene HP0602, lethal concentrations of V vs control) was 0.450. For the same molecule, the “log2 Fold Change” value (gene HP0608) was -0.470, the “log2 Fold Change” value (gene HP0613) was 1.327 and the “log2 Fold Change HP0639” value (gene HP0639, lethal concentrations of V vs control) was 0.172. For the same molecule, the “log2 Fold Change HP0640” value (gene HP0640, lethal concentrations of V vs control) was 0.392, the “log2 Fold Change” value (gene HP0641) was -0.474 and the “log2 Fold Change” value (gene HP0642) was -0.561. For the same molecule, the “log2 Fold Change” value (gene HP0648) was -0.611, the “log2 Fold Change HP0650” value (gene HP0650, lethal concentrations of V vs control) was 0.145 and the “log2 Fold Change HP0652” value (gene HP0652, lethal concentrations of V vs control) was 0.477. For the same molecule, the “log2 Fold Change HP0660” value (gene HP0660, lethal concentrations of V vs control) was 0.172, the “log2 Fold Change HP0670” value (gene HP0670, lethal concentrations of V vs control) was 0.376 and the “log2 Fold Change HP0680” value (gene HP0680, lethal concentrations of V vs control) was 0.219. For the same molecule, the “log2 Fold Change” value (gene HP0692) was 1.329, the “log2 Fold Change HP0699” value (gene HP0699, lethal concentrations of V vs control) was 0.318 and the “log2 Fold Change” value (gene HP0702) was -0.528. The “log2 Fold Change HP0709” value (gene HP0709, lethal concentrations of V vs control) was 0.245, the “log2 Fold Change” value (gene HP0734) was -0.529 and the “log2 Fold Change” value (gene HP0737) was -0.509. For the same molecule, the “log2 Fold Change” value (gene HP0741) was -0.519, the “log2 Fold Change HP0742” value (gene HP0742, lethal concentrations of V vs control) was 0.440 and the “log2 Fold Change HP0748” value (gene HP0748, lethal concentrations of V vs control) was 0.146. For the same molecule, the “log2 Fold Change HP0750” value (gene HP0750, lethal concentrations of V vs control) was 0.398, the “log2 Fold Change” value (gene HP0755) was -0.518 and the “log2 Fold Change” value (gene HP0759) was 1.350. For the same molecule, the “log2 Fold Change HP0763” value (gene HP0763, lethal concentrations of V vs control) was 0.150, the “log2 Fold Change” value (gene HP0765) was -0.541 and the “log2 Fold Change” value (gene HP0772) was -0.471. For the same molecule, the “log2 Fold Change HP0773” value (gene HP0773, lethal concentrations of V vs control) was 0.301, the “log2 Fold Change HP0782” value (gene HP0782, lethal concentrations of V vs control) was 0.353 and the “log2 Fold Change HP0796” value (gene HP0796, lethal concentrations of V vs control) was 0.282. For the same molecule, the “log2 Fold Change HP0803” value (gene HP0803, lethal concentrations of V vs control) was 0.182, the “log2 Fold Change HP0805” value (gene HP0805, lethal concentrations of V vs control) was 0.416 and the “log2 Fold Change” value (gene HP0810) was -0.532. The “log2 Fold Change” value (gene HP0819) was -0.529, the “log2 Fold Change HP0820” value (gene HP0820, lethal concentrations of V vs control) was 0.198 and the “log2 Fold Change HP0823” value (gene HP0823, lethal concentrations of V vs control) was 0.406. For the same molecule, the “log2 Fold Change HP0833” value (gene HP0833, lethal concentrations of V vs control) was 0.436, the “log2 Fold Change HP0836” value (gene HP0836, lethal concentrations of V vs control) was 0.282 and the “log2 Fold Change” value (gene HP0840) was -0.593. For the same molecule, the “log2 Fold Change HP0858” value (gene HP0858, lethal concentrations of V vs control) was 0.348, the “log2 Fold Change” value (gene HP0861) was -0.479 and the “log2 Fold Change HP0864” value (gene HP0864, lethal concentrations of V vs control) was 0.392. For the same molecule, the “log2 Fold Change HP0872” value (gene HP0872, lethal concentrations of V vs control) was 0.335, the “log2 Fold Change” value (gene HP0885) was -0.551 and the “log2 Fold Change HP0890” value (gene HP0890, lethal concentrations of V vs control) was 0.409. The “log2 Fold Change HP0897” value (gene HP0897, lethal concentrations of V vs control) was 0.220, the “log2 Fold Change HP0898” value (gene HP0898, lethal concentrations of V vs control) was 0.196 and the “log2 Fold Change HP0900” value (gene HP0900, lethal concentrations of V vs control) was 0.416. The “log2 Fold Change HP0909” value (gene HP0909, lethal concentrations of V vs control) was 0.281, the “log2 Fold Change” value (gene HP0916) was -0.568 and the “log2 Fold Change” value (gene HP0935) was -0.494. For the same molecule, the “log2 Fold Change” value (gene HP0936) was -0.576, the “log2 Fold Change” value (gene HP0939) was -0.568 and the “log2 Fold Change HP0946” value (gene HP0946, lethal concentrations of V vs control) was 0.226. The “log2 Fold Change HP0948” value (gene HP0948, lethal concentrations of V vs control) was 0.237, the “log2 Fold Change HP0949” value (gene HP0949, lethal concentrations of V vs control) was 0.337 and the “log2 Fold Change” value (gene HP0953) was -0.500. The “log2 Fold Change HP0955” value (gene HP0955, lethal concentrations of V vs control) was 0.173, the “log2 Fold Change HP0963” value (gene HP0963, lethal concentrations of V vs control) was 0.462 and the “log2 Fold Change HP0976” value (gene HP0976, lethal concentrations of V vs control) was 0.322.
